The values that follow come from PubChem BioAssay (NCI).

Values joined by “and” are separate entries in the source; they are usually repeats but may differ in a detail not shown here. Identical values can stand only once.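 Protocol summary: plate cells (96-well), add compound at 5 concentrations, incubate 48 h, interpolate endpoints linearly. At the GI50, growth is halved. Definition used: TGI = concentration required for complete inhibition of growth.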

Test systems include SK-MEL-28 melanoma; SN12C renal; 786-0 renal; SK-MEL-2 melanoma; OVCAR-3 ovarian; SW-620 colon; SF-268 CNS; SK-MEL-5 melanoma; LOX IMVI melanoma.
Common to all, as to test: inhibition of tumour cell growth, NCI panel, 48 h

As for `CO/C=C(\Br)c1ccc2c(c1)OCO2`, the TGI in the assay with SK-MEL-28 melanoma, in the assay on SN12C renal, in the assay on 786-0 renal, in the assay on SK-MEL-2 melanoma, with OVCAR-3 ovarian and in the assay on SW-620 colon was > 100 µM throughout. Further, in the assay with SF-268 CNS, the TGI is > 100 µM.

Consider `O=C(C=Nc1ccccc1S)c1ccco1`, for which the TGI worked out at 30.1 µM with SK-MEL-28 melanoma; 21.5 µM with SN12C renal; 31.7 µM in the assay on SK-MEL-5 melanoma; 31.8 µM with 786-0 renal; 33.1 µM with SK-MEL-2 melanoma; 31.2 µM in the assay on OVCAR-3 ovarian. Moreover, the TGI in the assay on SW-620 colon was 32.8 µM; in the assay on SF-268 CNS, 40.7 µM. In the assay with 786-0 renal, the GI50 is 16.6 µM.

As to `CC(=O)[CH-]C(C)=O.CC(=O)[CH-]C(C)=O.[Cl-].[O]=[V]`, the GI50 with SK-MEL-28 melanoma is 25.7 µM; in the assay with SN12C renal, 58.1 µM; in the assay with SK-MEL-5 melanoma it was 28.4 µM; with LOX IMVI melanoma, 14.9 µM; with 786-0 renal, 20 µM; with SK-MEL-2 melanoma, 26.8 µM. Further, the values for the GI50 with OVCAR-3 ovarian and in the assay with SW-620 colon were 25.5 µM and 38.9 µM, respectively. Further, the TGI with SK-MEL-28 melanoma was > 100 µM; in the assay on SN12C renal it was > 100 µM; in the assay with SK-MEL-5 melanoma it was 70.6 µM; with LOX IMVI melanoma, 44.5 µM; in the assay on 786-0 renal, 42.9 µM; in the assay with SK-MEL-2 melanoma, 77.1 µM. In addition, the TGI in the assay with OVCAR-3 ovarian is 51.6 µM; in the assay with SW-620 colon, > 100 µM.

With `CN(C)CCN(C)C(=O)c1cccc2cccc(C(=O)O)c12`, the TGI is > 100 µM in the assay with SK-MEL-28 melanoma; > 100 µM in the assay with SN12C renal; > 100 µM in the assay on SK-MEL-5 melanoma; > 100 µM in the assay with LOX IMVI melanoma; > 100 µM with 786-0 renal; 38.7 µM in the assay on SK-MEL-2 melanoma. Besides, the TGI in the assay on OVCAR-3 ovarian, with SW-620 colon and in the assay on SF-268 CNS was > 100 µM in each case.

Regarding `O=S1(=O)c2cc(S(=O)(=O)n3ccnc3)ccc2NC2=NCCCN21`, the TGI in the assay on SK-MEL-28 melanoma is > 100 µM; in the assay with SN12C renal, > 100 µM; with SK-MEL-5 melanoma, 49.6 µM; with LOX IMVI melanoma, > 100 µM; with 786-0 renal, 99.6 µM; in the assay with OVCAR-3 ovarian, 47.8 µM. Also, the figures for the TGI with SW-620 colon and with SF-268 CNS were 73.8 µM and > 100 µM, respectively.

Take `N#CC(C(=O)CCC(=O)Nc1cccc(C(F)(F)F)c1)c1ccccc1` (centres undefined): the TGI in the assay on SK-MEL-28 melanoma, in the assay on SN12C renal, in the assay on SK-MEL-5 melanoma, in the assay with LOX IMVI melanoma, in the assay with 786-0 renal and in the assay with SK-MEL-2 melanoma was > 100 µM throughout. Besides, the TGI with OVCAR-3 ovarian, with SW-620 colon and in the assay on SF-268 CNS was > 100 µM in each case.

`CC(C)CCCCCCCCCCCCC(=O)NCC(=O)NC1C(C)OC(Nc2ncnc3nc[nH]c23)C(O)C1O` (centres undefined): the GI50 is 0.00869 µM and 0.0484 µM in the assay on SK-MEL-28 melanoma; 0.00548 µM with SN12C renal; 0.0002 µM in the assay on LOX IMVI melanoma; 0.00182 µM in the assay with 786-0 renal; 0.0183 µM in the assay on SK-MEL-2 melanoma; 0.00218 µM with SW-620 colon. In addition, the GI50 with SF-268 CNS was 0.000965 µM. Moreover, the TGI in the assay with SK-MEL-28 melanoma was 0.485 µM and 1.26 µM; in the assay on SN12C renal, 0.683 µM; in the assay with 786-0 renal, 0.232 µM; in the assay on OVCAR-3 ovarian, 0.0024 µM; in the assay with SW-620 colon, 0.146 µM and 0.0233 µM; with SF-268 CNS it was 0.343 µM.

For the compound `O=C(CC1(O)C(=O)Nc2ccccc21)c1ccc(Cl)cc1Cl` (centres undefined), the TGI in the assay with SK-MEL-28 melanoma, in the assay on SN12C renal, in the assay on SK-MEL-5 melanoma, in the assay on LOX IMVI melanoma, in the assay with 786-0 renal and in the assay on SK-MEL-2 melanoma was > 100 µM throughout. Besides, the TGI in the assay on OVCAR-3 ovarian, with SW-620 colon and with SF-268 CNS was > 100 µM throughout.

For `Brc1ccc(C=NC23CC4CC(CC(C4)C2)C3)cc1`, the TGI with SK-MEL-28 melanoma, with SN12C renal, with SK-MEL-5 melanoma, with LOX IMVI melanoma, with 786-0 renal and with SK-MEL-2 melanoma was > 100 µM in each case. Moreover, the TGI in the assay on OVCAR-3 ovarian, in the assay with SW-620 colon and in the assay with SF-268 CNS was > 100 µM each time.

Regarding `COc1ccccc1NC(=O)C1=C(C)NC(C)=C(C(=O)Nc2ccccc2OC)C1c1ccccc1Cl`, the TGI with SK-MEL-28 melanoma, with SN12C renal, with SK-MEL-5 melanoma, in the assay on LOX IMVI melanoma, in the assay on 786-0 renal and in the assay on SK-MEL-2 melanoma was > 100 µM in each case. The TGI in the assay with OVCAR-3 ovarian, in the assay on SW-620 colon and in the assay with SF-268 CNS was > 100 µM in each case.

For `COc1ccc(-c2cc(=O)c3cc(C)c(C)c(C(=O)O)c3o2)cc1`, the TGI with SK-MEL-28 melanoma, with SN12C renal, in the assay with 786-0 renal, with SK-MEL-2 melanoma, in the assay on OVCAR-3 ovarian and in the assay with SW-620 colon was > 100 µM in each case.

As to `C[C@]12CCc3nonc3C1CC[C@@H]1C2CC[C@@]2(C)C1CC[C@@H]2O` (some centres undefined), the TGI in the assay with SK-MEL-28 melanoma, with SN12C renal, in the assay on SK-MEL-5 melanoma, with LOX IMVI melanoma, in the assay with 786-0 renal and in the assay with SK-MEL-2 melanoma was > 100 µM in each case. Besides, the TGI in the assay with OVCAR-3 ovarian, in the assay with SW-620 colon and in the assay with SF-268 CNS was > 100 µM in each case.

Turning to `COc1ccc(C[C@]23CCC(=O)N2CCc2cc(OC)c(O)cc23)cc1O`, the TGI in the assay with SK-MEL-28 melanoma, with SN12C renal, in the assay with SK-MEL-5 melanoma, with LOX IMVI melanoma, in the assay on 786-0 renal and with OVCAR-3 ovarian was > 100 µM throughout. For the same compound, the TGI with SW-620 colon and in the assay on SF-268 CNS was > 100 µM throughout.

With `C[N+](C)(C)C1CC([N+](C)(C)C)C2c3ccccc3C21` (centres undefined), the TGI in the assay on SK-MEL-28 melanoma, in the assay on SN12C renal, with SK-MEL-5 melanoma, in the assay on LOX IMVI melanoma, with 786-0 renal and in the assay on OVCAR-3 ovarian was > 100 µM throughout. Besides, the TGI in the assay with SW-620 colon and in the assay on SF-268 CNS was > 100 µM throughout.
